Experimental data: US20250186437A1, “CARBOLINE COMPOUNDS AND USE THEREOF” (PTC Therapeutics, Inc., priority 2021, published 2025)

The molecules below were run on MOLM-13 cells (assay: MOLM-13 Cell Proliferation Assay (indicator of DHODH inhibition)). Conditions: Homo sapiens, 72 Hours of culture, CellTiter-Glo, no uridine.
Type: cell-based
Method in brief: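 Proliferation readout via CellTiter-Glo luminescence after 72 h compound treatment (37 °C, 5% CO2, 0.5% DMSO) of MOLM-13 cells seeded at 10^4 per well in RPMI 1640/10% FBS, used as a DHODH-inhibition indicator since these cells rely on de novo pyrimidine synthesis.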
Molecule `Cc1cc(C)nc(N2CCc3c([nH]c4ccc(Cl)cc34)C2c2cnc(N3CCOCC3)nc2)n1` (stereo not drawn) [Compound 308, 6-chloro-2-(4,6-dimethylpyrimidin-2-yl)-1-[2-(morpholin-4-yl)pyrimidin-5-yl]-2,3,4,9-tetrahydro-1H-pyrido[3,4-b]indole] has an IC50 of 3.8 nM. `Cc1nc(C)nc(N2CCc3c([nH]c4c(N)cc(Cl)cc34)C2c2cnc(N3CCOCC3)nc2)n1` (stereo not drawn) [Compound 309, 6-chloro-2-(4,6-dimethyl-1,3,5-triazin-2-yl)-1-[2-(morpholin-4-yl)pyrimidin-5-yl]-2,3,4,9-tetrahydro-1H-pyrido[3,4-b]indol-8-amine] gave an IC50 of 5.6 nM. `Cc1ccnc(N2CCc3c([nH]c4ccc(Cl)cc34)C2c2cnc(N3CCOCC3)nc2)n1` (stereo not drawn) [Compound 312, 6-chloro-2-(4-methylpyrimidin-2-yl)-1-[2-(morpholin-4-yl)pyrimidin-5-yl]-2,3,4,9-tetrahydro-1H-pyrido[3,4-b]indole] was tested, and the IC50 was 7.4 nM. For `Cc1nc(C)nc(N2CCc3c([nH]c4ccc([N+](=O)[O-])cc34)C2c2cnc(N3CCOCC3)nc2)n1` (stereo not drawn) [Compound 313, 2-(4,6-dimethyl-1,3,5-triazin-2-yl)-1-[2-(morpholin-4-yl)pyrimidin-5-yl]-6-nitro-2,3,4,9-tetrahydro-1H-pyrido[3,4-b]indole], the IC50 was 18.1 nM. Molecule `FC(F)(F)c1ccnc(N2CCc3c([nH]c4ccc(-n5cccc5)cc34)C2c2cnc(N3CCOCC3)nc2)n1` (stereo not drawn) [Compound 314, 1-[2-(morpholin-4-yl)pyrimidin-5-yl]-6-(1H-pyrrol-1-yl)-2-[4-(trifluoromethyl)pyrimidin-2-yl]-2,3,4,9-tetrahydro-1H-pyrido[3,4-b]indole] has an IC50 of 22.2 nM. With `CCCCN(CCCC)c1nc(C)nc(N2CCc3c([nH]c4ccc(Cl)cc34)C2c2cnc(N3CCOCC3)nc2)n1` (stereo not drawn) [Compound 315, N,N-dibutyl-4-{6-chloro-1-[2-(morpholin-4-yl)pyrimidin-5-yl]-1,3,4,9-tetrahydro-2H-pyrido[3,4-b]indol-2-yl}-6-methyl-1,3,5-triazin-2-amine] the IC50 was 11.7 nM. Work on `CCCCOc1nc(C)nc(N2CCc3c([nH]c4ccc(Cl)cc34)C2c2cnc(N3CCOCC3)nc2)n1` (stereo not drawn) [Compound 318, 2-(4-butoxy-6-methyl-1,3,5-triazin-2-yl)-6-chloro-1-[2-(morpholin-4-yl)pyrimidin-5-yl]-2,3,4,9-tetrahydro-1H-pyrido[3,4-b]indole] yielded an IC50 of 4.3 nM. With `FC(F)(F)c1ccnc(N2CCc3c([nH]c4ccc(Cl)cc34)C2c2ccc(Cl)nc2Cl)n1` (stereo not drawn) [Compound 319, 6-chloro-1-(2,6-dichloropyridin-3-yl)-2-[4-(trifluoromethyl)pyrimidin-2-yl]-2,3,4,9-tetrahydro-1H-pyrido[3,4-b]indole] the IC50 was 82.1 nM. Work on `Cc1nc(C)nc(N2CCc3c([nH]c4c(N)cc(Cl)cc34)C2c2ccc(N3CCOCC3)nc2)n1` (stereo not drawn) [Compound 321, 6-chloro-2-(4,6-dimethyl-1,3,5-triazin-2-yl)-1-[6-(morpholin-4-yl)pyridin-3-yl]-2,3,4,9-tetrahydro-1H-pyrido[3,4-b]indol-8-amine] yielded an IC50 of 7 nM. `Cc1ccc(C2c3[nH]c4ccc(Cl)cc4c3CCN2c2ncnc(C)n2)cc1` (stereo not drawn) [Compound 322, 6-chloro-1-(4-methylphenyl)-2-(4-methyl-1,3,5-triazin-2-yl)-2,3,4,9-tetrahydro-1H-pyrido[3,4-b]indole] gave an IC50 of 25.9 nM. With `O=[N+]([O-])c1ccc2[nH]c3c(c2c1)CCN(c1nccc(C(F)(F)F)n1)C3c1cnc(N2CCOCC2)nc1` (stereo not drawn) [Compound 323, 1-[2-(morpholin-4-yl)pyrimidin-5-yl]-6-nitro-2-[4-(trifluoromethyl)pyrimidin-2-yl]-2,3,4,9-tetrahydro-1H-pyrido[3,4-b]indole] the IC50 was 3.6 nM. Work on `Cc1nc(C)nc(N2CCc3c([nH]c4ccc(Cl)c([N+](=O)[O-])c34)C2c2cnc(N3CCOCC3)nc2)n1` (stereo not drawn) [Compound 325, 4-[5-[6-chloro-2-(4,6-dimethyl-1,3,5-triazin-2-yl)-5-nitro-1,3,4,9-tetrahydropyrido[3,4-b]indol-1-yl]pyrimidin-2-yl]morpholine] yielded an IC50 of 167 nM. With `O=[N+]([O-])c1c(Cl)ccc2[nH]c3c(c12)CCN(c1nccc(C(F)(F)F)n1)C3c1cnc(N2CCOCC2)nc1` (stereo not drawn) [Compound 326, 6-chloro-1-[2-(morpholin-4-yl)pyrimidin-5-yl]-5-nitro-2-[4-(trifluoromethyl)pyrimidin-2-yl]-2,3,4,9-tetrahydro-1H-pyrido[3,4-b]indole] the IC50 was 29.7 nM. `Cc1nc(C)nc(N2CCc3c([nH]c4ccc(Cl)c(N)c34)C2c2cnc(N3CCOCC3)nc2)n1` (stereo not drawn) [Compound 327, 6-chloro-2-(4,6-dimethyl-1,3,5-triazin-2-yl)-1-[2-(morpholin-4-yl)pyrimidin-5-yl]-2,3,4,9-tetrahydro-1H-pyrido[3,4-b]indol-5-amine] was tested, and the IC50 was 31.9 nM. With `CN(C)c1ccc2[nH]c3c(c2c1)CCN(c1nccc(C(F)(F)F)n1)C3c1cnc(N2CCOCC2)nc1` (stereo not drawn) [Compound 329, N,N-dimethyl-1-[2-(morpholin-4-yl)pyrimidin-5-yl]-2-[4-(trifluoromethyl)pyrimidin-2-yl]-2,3,4,9-tetrahydro-1H-pyrido[3,4-b]indol-6-amine] the IC50 was 35.4 nM. With `Cc1nc(C)nc(N2CCc3c([nH]c4ccc(N(C)C)cc34)C2c2cnc(N3CCOCC3)nc2)n1` (stereo not drawn) [Compound 331, 2-(4,6-dimethyl-1,3,5-triazin-2-yl)-N,N-dimethyl-1-[2-(morpholin-4-yl)pyrimidin-5-yl]-2,3,4,9-tetrahydro-1H-pyrido[3,4-b]indol-6-amine] the IC50 was 102 nM. With `Cc1ccc(C2c3[nH]c4ccc(Cl)cc4c3CCN2c2nccc(C)n2)cc1` (stereo not drawn) [Compound 332, 6-chloro-1-(4-methylphenyl)-2-(4-methylpyrimidin-2-yl)-2,3,4,9-tetrahydro-1H-pyrido[3,4-b]indole] the IC50 was 11.8 nM. In the case of `FC(F)c1ccnc(N2CCc3c([nH]c4ccc(Cl)cc34)C2c2cnc(N3CCOCC3)nc2)n1` (stereo not drawn) [Compound 334, 6-chloro-2-[4-(difluoromethyl)pyrimidin-2-yl]-1-[2-(morpholin-4-yl)pyrimidin-5-yl]-2,3,4,9-tetrahydro-1H-pyrido[3,4-b]indole], the IC50 is reported as 13 nM. With `FC(F)(F)c1ccnc(N2CCc3c([nH]c4ccc(Cl)cc34)C2c2cnc(N3CC4CC3CO4)nc2)n1` (stereo not drawn) [Compound 335, 6-chloro-1-[2-(2-oxa-5-azabicyclo[2.2.1]heptan-5-yl)pyrimidin-5-yl]-2-[4-(trifluoromethyl)pyrimidin-2-yl]-2,3,4,9-tetrahydro-1H-pyrido[3,4-b]indole] the IC50 was 7.6 nM. `Cc1nc(C)nc(N2CCc3c([nH]c4ccc(Cl)cc34)C2c2cnc(N3CC4CC3CO4)nc2)n1` (stereo not drawn) [Compound 336, 6-chloro-2-(4,6-dimethyl-1,3,5-triazin-2-yl)-1-[2-(2-oxa-5-azabicyclo[2.2.1]heptan-5-yl)pyrimidin-5-yl]-2,3,4,9-tetrahydro-1H-pyrido[3,4-b]indole] was tested, and the IC50 was 52.2 nM. For `FC(F)(F)c1ccnc(N2CCc3c([nH]c4ccc(Cl)cc34)C2c2cnc(N3C4CCC3COC4)nc2)n1` (stereo not drawn) [Compound 337, 6-chloro-1-[2-(3-oxa-8-azabicyclo[3.2.1]octan-8-yl)pyrimidin-5-yl]-2-[4-(trifluoromethyl)pyrimidin-2-yl]-2,3,4,9-tetrahydro-1H-pyrido[3,4-b]indole], the IC50 was 8.2 nM.
